In PMC4721062, “Oxadiazole-2-oxides may have other functional targets, in addition to SjTGR, through which they cause mortality in Schistosoma japonicum” (Parasites & Vectors, 2016):
Like-named read-outs stand apart in the source and are kept apart here.

Legend:
juvenile S. japonicum = test: microbe, parasite or virus in culture; format: cell-based; details: for mortality at 50 µM / killing at 2 µM / killing at 5 µM / killing at 50 µM: Schistosoma japonicum; for mortality at 50 µM: read-out: Mortality of juvenile worms; for killing at 2 µM / killing at 5 µM / killing at 50 µM / Killing activity 24hr / Killing activity 48hr / Killing activity 72hr: juvenile worms; for Killing activity 24hr / Killing activity 48hr / Killing activity 72hr: 10 μM
Outline: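 Juvenile S. japonicum, 20–30 tail-shed cercariae per well, were exposed to compounds at 2, 5, 10 and 50 μM in RPMI 1640 with 10% FBS and HEPES. Survival was scored microscopically at 24, 48 and 72 h, with death defined by disrupted internal structure or tegument or 1 min without motility. % D is dead/total, averaged over three experiments.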

adult S. japonicum = test: microbe, parasite or virus in culture; format: cell-based; details: for killing at 25 µM / killing at 50 µM / killing at 100 µM / Killing activity 24hr / Killing activity 48hr / Killing activity 72hr: adult worms
Outline: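 Adult worm pairs recovered by portal perfusion from ICR mice 35 days after infection with 50 cercariae, cultured in RPMI 1640 (pH 7.5, 20 mM HEPES, 10% FBS) at 37 °C, 5% CO2. Oxadiazole-2-oxides at 10, 25, 50, 100 μM; motility and survival scored microscopically at 24, 48, 72 h, death being no movement over 2 min; three independent experiments averaged.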

[1] = 24 h, read-out: Killing activity 24hr
[2] = 48 h, read-out: Killing activity 48hr
[3] = 72 h, read-out: Killing activity 72hr
[4] = Schistosoma japonicum, 24 h, read-out: Mortality of adult worms
[5] = Schistosoma japonicum, 25 μM, 24 h, read-out: Killing activity 24hr
[6] = Schistosoma japonicum, 25 μM, 48 h, read-out: Killing activity 48hr
[7] = Schistosoma japonicum, 25 μM, 72 h, read-out: Killing activity 72hr
[8] = Schistosoma japonicum, 24 h, read-out: Killing activity 24hr
[9] = Schistosoma japonicum, 48 h, read-out: Killing activity 48hr
[10] = Schistosoma japonicum, 72 h, read-out: Killing activity 72hr

Row | Structure (SMILES) | killing at 2 µM (juvenile S. japonicum; [1]) [%] | killing at 2 µM (juvenile S. japonicum; [2]) [%] | killing at 2 µM (juvenile S. japonicum; [3]) [%] | killing at 5 µM (juvenile S. japonicum; [1]) [%] | killing at 5 µM (juvenile S. japonicum; [2]) [%] | killing at 5 µM (juvenile S. japonicum; [3]) [%] | killing at 50 µM (juvenile S. japonicum; [1]) [%] | killing at 50 µM (juvenile S. japonicum; [2]) [%] | killing at 50 µM (juvenile S. japonicum; [3]) [%] | Killing activity 24hr (juvenile S. japonicum; 24 h) [%D] | Killing activity 48hr (juvenile S. japonicum; 48 h) [%D] | Killing activity 72hr (juvenile S. japonicum; 72 h) [%D] | killing at 25 µM (adult S. japonicum; [6]) [%] | killing at 25 µM (adult S. japonicum; [7]) [%] | killing at 50 µM (adult S. japonicum; [8]) [%] | killing at 50 µM (adult S. japonicum; [9]) [%] | killing at 50 µM (adult S. japonicum; [10]) [%] | killing at 100 µM (adult S. japonicum; [8]) [%] | killing at 100 µM (adult S. japonicum; [9]) [%] | killing at 100 µM (adult S. japonicum; [10]) [%] | other results
1 | N#Cc1c(-c2ccc(OC/C=C/CBr)cc2)no[n+]1[O-] [Compound 16] | 14.7 | 22.7 | 25.3 | 16.1 | 21.9 | 34.3 | 31.4 | 60.5 | 72.1 | 20.9 | 27.3 | 39.1 | 75 | 100 | 100 | 100 | 100 | 100 | 100 | 100 | mortality at 50 µM (juvenile S. japonicum; 24 h): < 30%; mortality at 50 µM (juvenile S. japonicum; 72 h): 72.1 ± 3.7%; mortality at 50 µM (adult S. japonicum; [4]): 100%; killing at 25 µM (adult S. japonicum; [5]): 50%; Killing activity 24hr (adult S. japonicum; 10 μM, 24 h): n.e.; Killing activity 48hr (adult S. japonicum; 10 μM, 48 h): 50.0%D; Killing activity 72hr (adult S. japonicum; 10 μM, 72 h): 80.0%D
2 | N#Cc1c(-c2ccc(OCCCBr)cc2)no[n+]1[O-] [Compound 13] | 13 | 13 | 13 | 14.2 | 15.5 | 15.5 | 23.3 | 29.9 | 41 | 19.0 | 19.0 | 20.3 | 100 | 100 | 100 | 100 | 100 | 100 | 100 | 100 | mortality at 50 µM (juvenile S. japonicum; 24 h): < 30%; mortality at 50 µM (juvenile S. japonicum; 72 h): 41 ± 6.3%; mortality at 50 µM (adult S. japonicum; [4]): 100%; Killing activity 24hr (adult S. japonicum; 10 μM, 24 h): sluggish; Killing activity 48hr (adult S. japonicum; 10 μM, 48 h): 90.0%D; Killing activity 72hr (adult S. japonicum; 10 μM, 72 h): 100%D; Killing activity 24hr (adult S. japonicum; 25 μM, 24 h): sluggish
3 | N#Cc1c(-c2ccc(COc3ccccc3)cc2)no[n+]1[O-] [Compound 23] | 6 | 16.1 | 17.7 | 9 | 15 | 20 | 69.9 | 70.8 | 77 | 45.0 | 60.0 | 66.7 | 100 | 100 | 100 | 100 | 100 | 100 | 100 | 100 | mortality at 50 µM (juvenile S. japonicum; 24 h): > 70%; mortality at 25 µM (adult S. japonicum; [4]): > 75%; killing at 25 µM (adult S. japonicum; [5]): 100%; Killing activity 24hr (adult S. japonicum; 10 μM, 24 h): 62.5%D; Killing activity 48hr (adult S. japonicum; 10 μM, 48 h): 87.5%D; Killing activity 72hr (adult S. japonicum; 10 μM, 72 h): 100%D
4 | Cc1ccc(-c2no[n+]([O-])c2C#N)cc1 [Compound 7b] | 16 | 26.6 | 31.9 | 21.1 | 26.3 | 36.8 | 47.5 | 55.9 | 57.6 | 23.8 | 33.3 | 57.1 | 100 | 100 | 100 | 100 | 100 | 100 | 100 | 100 | mortality at 25 µM (adult S. japonicum; [4]): > 75%; mortality at 10 µM (adult S. japonicum; Schistosoma japonicum, 72 h, read-out: Mortality of adult worms): 83.3 ± 4.7%; killing at 25 µM (adult S. japonicum; [5]): 100%; Killing activity 24hr (adult S. japonicum; 10 μM, 24 h): 16.7%D; Killing activity 48hr (adult S. japonicum; 10 μM, 48 h): 50.0%D; Killing activity 72hr (adult S. japonicum; 10 μM, 72 h): 83.3%D
5 | N#Cc1c(-c2ccc(OCCBr)cc2)no[n+]1[O-] [Compound 12] | 17.3 | 17.3 | 19.2 | 16.4 | 18.2 | 23.6 | 33.3 | 36.2 | 72.5 | 21.3 | 21.3 | 28.8 | 100 | 100 | 88.9 | 100 | 100 | 100 | 100 | 100 | mortality at 50 µM (juvenile S. japonicum; 24 h): < 30%; mortality at 25 µM (adult S. japonicum; [4]): > 75%; killing at 25 µM (adult S. japonicum; [5]): 80%; Killing activity 24hr (adult S. japonicum; 10 μM, 24 h): sluggish; Killing activity 48hr (adult S. japonicum; 10 μM, 48 h): sluggish; Killing activity 72hr (adult S. japonicum; 10 μM, 72 h): 55.6%D
